What was measured:
[1] = test system: KB tumor line; experiment: Antiproliferative activity (cell viability) on KB tumor line, with or without β-N-acetylglucosaminidase; type: cell-based, human; settings: KB cells, 72 hours of incubation
Procedure: (§1) The curves with the circles correspond to MMAE, the curves with the squares correspond to vector 80 and the curves with the triangles correspond to vector 80 in the presence of GlcNase.
(§2) The antiproliferative activity of vector 80 was evaluated on human KB and MDA-MB-231 tumor lines and compared to that of MMAE. To do this, compound 80 was placed in the culture medium in the absence or presence of β-N-acetylglucosaminidase and cell viability was measured after 72 hours of incubation (FIG. 1).

[2] = test system: MDA-MB-231 tumor line; experiment: Antiproliferative activity (cell viability) on MDA-MB-231 tumor line, with or without β-N-acetylglucosaminidase; type: cell-based, human; settings: MDA-MB-231 cells, 72 hours of incubation
Procedure: as §1, §2

[3] = test system: MDA-MB-231 orthotopic tumors; experiment: Therapeutic efficacy on MDA-MB-231 orthotopic triple negative breast tumor model in mice; type: in vivo
Procedure: The vectors were administered on days 21, 35 and 49. Each point corresponds to the average of the tumor volumes±SEM. The curves with the triangles correspond to the vehicle and the curves with the squares correspond to the vector 80.
The therapeutic efficacy of vector 80 was evaluated in mice, on a triple negative breast tumor model of the MDA-MB-231 type (FIG. 2). Compound 80 was administered three times, with a period of 14 days, intravenously in the caudal vein, at a dose of 4 mg·kg^−1.

In the case of `CC[C@H](C)[C@@H]([C@@H](CC(=O)N1CCC[C@H]1[C@H](OC)[C@@H](C)C(=O)N[C@H](C)[C@@H](O)c1ccccc1)OC)N(C)C(=O)[C@@H](NC(=O)[C@H](C(C)C)N(C)C(=O)OC(Cc1cn(CCOCCOCCOCCOCCOCCOCCOCCOCCOCCOCCNC(=O)CCCCCN2C(=O)C=CC2=O)nn1)c1ccc(O[C@@H]2OC(CO)[C@@H](O)[C@H](O)C2NC(C)=O)c([N+](=O)[O-])c1)C(C)C` (stereo partly shown) [vector 80], the “cytotoxicity in the absence versus presence of β-N-acetylglucosaminidase” value [1] is reported as “identical cytotoxicity”, the “cytotoxicity in the absence versus presence of β-N-acetylglucosaminidase” value [2] is reported as “identical cytotoxicity” and the “therapeutic activity relative to the control group” value ([3]; 4 mg·kg^−1 intravenously, days 21, 35 and 49) is reported as “significant therapeutic activity”. For the same compound, the “mice with total and lasting regression of the tumor” value ([3]; end of the experiment (day 63), 4 mg·kg^−1 intravenously) was 3/6, the “mice that no longer had detectable tumors” value ([3]; from day 35, after the first injection, 4 mg·kg^−1 intravenously) was 4/6 and the “reduction in the initial tumor size (initial response to treatment)” value ([3]; initial response, before regrowth at day 42, 4 mg·kg^−1 intravenously) was 90%. For the same compound, the “mortality (tolerance)” value ([3]; until end of protocol (day 63), 4 mg·kg^−1 intravenously, three administrations) was “no mortality”.

From patent US20240424118A1, “VECTORS TARGETING BETA-D-N-ACETYLGLUCOSAMINIDASE” (CENTRE NATIONAL DE LA RECHERCHE SCIENTIFIQUE, priority 2021, published 2024)
